US11919855B2, “Substituted pyrrolidones and piperidones as small molecule inhibitors of EZH2 and EED protein binding” (Northwestern University, priority 2021, dated 2024)

What follows are compounds tested against EED-EZH2 (Homo sapiens (Human), UniProt O75530) (assay: EED-EZH2 AlphaScreen assay). Details: 8.7 nM EZH2, 5.0 nM EED, read-out: IC50 Potency Code.
Type: binding
Protocol: Biological activity of exemplary substituted pyrrolidones and piperidones was determined by the EED-EZH2 AlphaScreen assay according the following methodology.
EZH2 (non-complexed), His-GST-tags
Anti-FLAG AlphaLISA Acceptor Beads
AlphaScreen GSH Donor Beads
Assay Protocol (Calculated for 384 Wells or 1 Plate)
• 1. Thaw EED and EZH2 proteins on ice. • 2. Prepare 1× HMT Buffer 2: • 1.5 mL of 4× HMT Buffer 2+4.5 mL ddH2O. • 3. Prepare 1.2× EED-EZH2 solution in 1× HMT Buffer 2: 3.4 mL total • 2.1 uL of EED (0.41 mg/mL, 8.04 uM, 1:1608 dilution)+14 uL of EZH2 (0.24 mg/mL, 2.11 uM, 1:243 dilution)+3.384 mL of 1× HMT Buffer 2 • 4. Prepare 1.2× EZH2 solution in 1× HMT Buffer 2 (positive control): 0.168 mL total • 0.69 uL of EZH2 (0.24 mg/mL, 2.11 uM, 1:243 dilution)+167 uL of 1× HMT Buffer 2 • 5. Add 10 μL of 1.2× EED-EZH2 or 1.2× EZH2 solution to each well. • 6. Add compounds in DMSO via Echo transfer and 30 nL DMSO for control wells. • 7. Centrifuge at 15,000 rpm for 10 seconds and allow to incubate at rt for 1 hour. Step Two • 1. Prepare 6× Anti-FLAG and GSH Donor beads in 1× HMT Buffer 2 in the dark: 1 mL total • 10 uL of Anti-FLAG (1:100 dilution)+5 uL of GSH Donor (1:200 dilution)+985 uL of 1× HMT Buffer 2 • 2. Add 2 μL of bead solution to each well. • 3. Centrifuge at 15,000 rpm for 10 seconds and allow to incubate at rt for 1 hour in the dark. • 4. Read plate. Final Concentrations: • 12 μL volume per well • 8.7 nM EZH2 • 5.0 nM EED • DMSO<0.5% Calculations: • 1. Average EZH2 only wells (positive control) and subtract from all other wells. • 2. Average EED-EZH2 only wells (negative control) to indicate 100% signal or 0% inhibition. • 3. Normalize each well to the average 100% signal from step 2. • 4. Report either as normalized % inhibition or normalized % signal. • Use GraphPad to Calculate IC50.

EED-EZH2, sequence (O75530 2-441): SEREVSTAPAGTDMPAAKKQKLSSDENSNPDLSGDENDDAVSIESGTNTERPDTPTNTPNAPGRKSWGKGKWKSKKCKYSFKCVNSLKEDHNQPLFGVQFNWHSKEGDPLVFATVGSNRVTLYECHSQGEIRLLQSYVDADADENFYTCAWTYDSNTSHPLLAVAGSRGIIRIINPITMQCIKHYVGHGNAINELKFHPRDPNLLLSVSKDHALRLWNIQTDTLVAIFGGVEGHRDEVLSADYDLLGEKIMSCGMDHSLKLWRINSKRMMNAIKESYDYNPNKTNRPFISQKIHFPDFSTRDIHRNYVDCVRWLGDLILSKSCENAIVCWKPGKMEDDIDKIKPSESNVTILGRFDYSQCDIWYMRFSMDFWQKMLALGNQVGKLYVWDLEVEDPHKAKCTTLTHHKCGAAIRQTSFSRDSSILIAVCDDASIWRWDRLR

Row | SMILES | IC50 [µM]
1 | O=C(O)c1ccccc1C(=O)NC1CC(=O)N(Cc2ccccc2C(F)(F)F)C1 (stereo not shown) [NUCC-0202666] | > 50
2 | Cc1c(C(=O)NC2CC(=O)N(Cc3ccccc3[N+](=O)[O-])C2)cccc1[N+](=O)[O-] (stereo not shown) [NUCC-0202656] | > 50
3 | O=C(NCC1CC(=O)N(Cc2cccc(C(F)(F)F)c2)C1)c1cc(C(F)(F)F)ccc1O (stereo not shown) [NUCC-0226233] | < 1
4 | Cc1ccc(O)c(C(=O)N[C@H]2CC(=O)N(C3CCc4ccccc43)C2)c1 (stereo partly shown) [NUCC-0202976] | > 50
5 | Cc1ccc(O)c(C(=O)N(C)C2CC(=O)N(Cc3ccccc3C(F)(F)F)C2)c1 (stereo not shown) [NUCC-0202747] | > 50
6 | O=C(NC1CC(=O)N(Cc2ccccc2C(F)(F)F)C1)c1cc(Cl)ccc1O (stereo not shown) [NUCC-0202833] | 1 to 10
7 | O=C(NC[C@@H]1CC(=O)N(Cc2cccc(C(F)(F)F)c2)C1)c1cc(C(F)(F)F)ccc1O [NUCC-0226244] | < 1
8 | O=C(N[C@H]1CC(=O)N(Cc2ccccc2C(F)(F)F)C1)c1cc(C(F)(F)F)ccc1O [NUCC-0223624] | < 1
9 | Cc1ccc(O)c(C(=O)N[C@H]2CC(=O)N(C3C=Cc4ccccc43)C2)c1 (stereo partly shown) [NUCC-0202979] | 10 to 50
10 | Cc1ccc(C(=O)NC2CC(=O)N(Cc3ccccc3C(F)(F)F)C2)c(O)c1 (stereo not shown) [NUCC-0202750] | > 50
11 | Cc1cccc(C(=O)NC2CC(=O)N(Cc3ccccc3C(F)(F)F)C2)c1O (stereo not shown) [NUCC-0202751] | > 50
12 | O=C(NC1CC(=O)N(Cc2ccccc2C(F)(F)F)C1)c1ccc2ccccc2c1O (stereo not shown) [NUCC-0202761] | 10 to 50
13 | Cc1c[nH]c(=O)c(C(=O)NC2CC(=O)N(Cc3ccccc3C(F)(F)F)C2)c1 (stereo not shown) [NUCC-0202828] | > 50
14 | Cc1cccc(C(=O)NC2CC(=O)N(Cc3ccccc3C(F)(F)F)C2)c1 (stereo not shown) [NUCC-0202668] | > 50
15 | O=C(NC1CC(=O)N(Cc2ccccc2C(F)(F)F)C1)c1cccc(-c2ccccc2)c1 (stereo not shown) [NUCC-0202667] | > 50
16 | O=C(NCC1CCC(=O)N1Cc1cccc(C(F)(F)F)c1)c1cc(C(F)(F)F)ccc1O (stereo not shown) [NUCC-0226240] | 1 to 10
17 | O=C(N[C@H]1CC(=O)N(Cc2cccc(C(F)(F)F)c2)C1)c1cc(C(F)(F)F)ccc1O [NUCC-0226234] | 1 to 10
18 | Cc1ccc(O)c(C(=O)NC2CC(=O)N(Cc3ccccc3[N+](=O)[O-])C2)c1 (stereo not shown) [NUCC-0202653] | 1 to 10
19 | COc1ccc(O)c(C(=O)NC2CC(=O)N(Cc3ccccc3C(F)(F)F)C2)c1 (stereo not shown) [NUCC-0202831] | 10 to 50
20 | O=C(NC[C@H]1CC(=O)N(Cc2cccc(F)c2)C1)c1cc(C(F)(F)F)ccc1O [NUCC-0226243] | < 1
21 | Cc1ccc(O)c(C(=O)N[C@@H]2CC(=O)N(Cc3ccc(C(F)(F)F)cc3)C2)c1 [NUCC-0202978] | > 50

Row | SMILES | IC50 [µM]
22 | Cn1nccc1C(=O)NC1CC(=O)N(Cc2ccccc2C(F)(F)F)C1 (stereo not shown) [NUCC-0202764] | > 50
23 | O=C(NC1CC(=O)N(Cc2ccccc2C(F)(F)F)C1)c1cc(F)ccc1O (stereo not shown) [NUCC-0202832] | 1 to 10
24 | O=C(NC1CC(=O)N(Cc2ccc(Cl)c(Cl)c2)C1)c1cccc(-c2ccccc2)c1 (stereo not shown) [NUCC-0202677] | > 50
25 | CC(C)(CO)C(=O)NC1CC(=O)N(Cc2ccccc2C(F)(F)F)C1 (stereo not shown) [NUCC-0202851] | > 50
26 | O=C(NC1CC(=O)N(Cc2ccccc2C(F)(F)F)C1)c1ccc(Cl)c(Cl)c1 (stereo not shown) [NUCC-0202670] | > 50
27 | Cc1ccc(O)c(C(=O)NC2CC(=O)N(Cc3ccccc3C(F)(F)F)C2)n1 (stereo not shown) [NUCC-0202968] | > 50
28 | Cc1ccc(O)c(C(=O)Nc2ccc(=O)n(Cc3ccccc3C(F)(F)F)c2)c1 [NUCC-0202969] | > 50
29 | COc1cccc(CC(=O)NC2CC(=O)N(Cc3ccccc3[N+](=O)[O-])C2)c1 (stereo not shown) [NUCC-0202655] | > 50
30 | O=C(NC1CC(=O)N(Cc2ccccc2C(F)(F)F)C1)c1ccnc(Cl)n1 (stereo not shown) [NUCC-0202757] | > 50
31 | O=C(NC1CC(=O)N(Cc2ccccc2C(F)(F)F)C1)c1cccnc1 (stereo not shown) [NUCC-0202663] | > 50
32 | O=C(NC1CCC(=O)N(Cc2ccccc2C(F)(F)F)C1)c1cc(C(F)(F)F)ccc1O (stereo not shown) [NUCC-0223818] | 1 to 10
33 | O=C(Cc1cc2ccccc2[nH]1)NC1CC(=O)N(Cc2ccccc2C(F)(F)F)C1 (stereo not shown) [NUCC-0202756] | > 50
34 | O=C(NC[C@@H]1CCC(=O)N1Cc1cccc(C(F)(F)F)c1)c1cc(C(F)(F)F)ccc1O [NUCC-0226241] | 1 to 10
35 | O=C(NC1CC(=O)N(Cc2ccccc2C(F)(F)F)C1)c1cc(C(F)(F)F)ccc1O (stereo not shown) [NUCC-0202965] | 1 to 10
36 | O=C(NC1CC(=O)N(Cc2ccccc2C(F)(F)F)C1)c1cc(Br)ccc1O (stereo not shown) [NUCC-0202834] | 1 to 10
37 | O=C(NC1CC(=O)N(Cc2ccccc2C(F)(F)F)C1)c1ccc(Br)c(O)c1 (stereo not shown) [NUCC-0202765] | > 50
38 | O=C(NC1CC(=O)N(Cc2ccccc2C(F)(F)F)C1)c1coc2ccccc12 (stereo not shown) [NUCC-0202760] | > 50
39 | O=C(O)c1ccccc1C(=O)NC1CC(=O)N(Cc2ccccc2[N+](=O)[O-])C1 (stereo not shown) [NUCC-0202658] | > 50
40 | Cc1cccc(C(=O)NC2CC(=O)N(Cc3ccc(Cl)c(Cl)c3)C2)c1 (stereo not shown) [NUCC-0202678] | > 50
41 | Nc1ccc(Cl)cc1C(=O)NC1CC(=O)N(Cc2ccccc2C(F)(F)F)C1 (stereo not shown) [NUCC-0223635] | > 50
42 | O=C(NC[C@H]1CCC(=O)N1Cc1cccc(C(F)(F)F)c1)c1cc(C(F)(F)F)ccc1O [NUCC-0226242] | 1 to 10

Results, then the compound that gave them:

Row | IC50 [µM] | SMILES
43 | > 50 | O=C1C(Nc2ncnc3ccc(C(F)(F)F)cc23)CCN1Cc1ccccc1C(F)(F)F (stereo not shown) [NUCC-0223825]
44 | > 50 | O=C(NC1CC(=O)N(Cc2ccc(Cl)c(Cl)c2)C1)c1ccccc1O (stereo not shown) [NUCC-0202674]
45 | > 50 | Cc1ccc(O)c(C(=O)N[C@H]2CC(=O)N(Cc3ccc(C(F)(F)F)cc3)C2)c1 [NUCC-0202974]
46 | > 50 | O=C(NC1CC(=O)N(Cc2ccccc2C(F)(F)F)C1)c1cc(Cl)nc2ccccc12 (stereo not shown) [NUCC-0202792]
47 | > 50 | O=C(NC1CCN(Cc2ccccc2C(F)(F)F)C1=O)c1cc(Cl)ccc1O (stereo not shown) [NUCC-0223824]
48 | > 50 | O=C1CCC(Nc2ncnc3ccc(C(F)(F)F)cc23)CN1Cc1ccccc1C(F)(F)F (stereo not shown) [NUCC-0223826]
49 | > 50 | COc1cccc(CC(=O)NC2CC(=O)N(Cc3ccccc3C(F)(F)F)C2)c1 (stereo not shown) [NUCC-0202661]
50 | > 50 | O=C(NC1CC(=O)N(Cc2ccc(Cl)c(Cl)c2)C1)c1cccnc1 (stereo not shown) [NUCC-0202675]
51 | > 50 | Cc1cccc(O)c1C(=O)NC1CC(=O)N(Cc2ccccc2C(F)(F)F)C1 (stereo not shown) [NUCC-0202827]
52 | > 50 | COc1ccc(C)cc1C(=O)NC1CC(=O)N(Cc2ccccc2[N+](=O)[O-])C1 (stereo not shown) [NUCC-0202654]
53 | 1 to 10 | Cc1ccc(O)c(C(=O)NC2CC(=O)N(Cc3ccccc3C(F)(F)F)C2)c1 (stereo not shown) [NUCC-0163358]
54 | > 50 | O=C(NC1CC(=O)N(Cc2ccccc2C(F)(F)F)C1)c1cccc2cc[nH]c12 (stereo not shown) [NUCC-0202749, N-(5-oxo-1-(2-(trifluoromethyl)benzyl)pyrrolidin-3-yl)-1H-indole-7-carboxamide]
55 | 1 to 10 | O=C(N[C@H]1CCN(Cc2cccc(C(F)(F)F)c2)C1=O)c1cc(C(F)(F)F)ccc1O [NUCC-0226238]
56 | 10 to 50 | Cc1ccc(O)c(C(=O)N[C@H]2CC(=O)N(Cc3ccc(Cl)c(Cl)c3)C2)c1 [NUCC-0202975]
57 | > 50 | O=C(NC1CC(=O)N(Cc2ccccc2C(F)(F)F)C1)c1ccc(Cl)nc1Cl (stereo not shown) [NUCC-0202762]
58 | > 50 | Cc1ccc(N)c(C(=O)NC2CC(=O)N(Cc3ccccc3C(F)(F)F)C2)c1 (stereo not shown) [NUCC-0202793]
59 | 10 to 50 | O=C(NC1CC(=O)N(Cc2ccccc2C(F)(F)F)C1)c1cc(I)ccc1O (stereo not shown) [NUCC-0202852]
60 | 10 to 50 | Cc1ccc(O)c(C(=O)N[C@H]2CC(=O)N(Cc3ccccc3Cl)C2)c1 [NUCC-0202973]
61 | 1 to 10 | O=C(NC1CCC(=O)N(Cc2ccccc2C(F)(F)F)C1)c1cc(Cl)ccc1O (stereo not shown) [NUCC-0223819]
62 | > 50 | O=C(NC1CC(=O)N(Cc2ccccc2C(F)(F)F)C1)c1ccc2ccccc2n1 (stereo not shown) [NUCC-0202758]
63 | 1 to 10 | O=C(NC1CCN(Cc2cccc(C(F)(F)F)c2)C1=O)c1cc(C(F)(F)F)ccc1O (stereo not shown) [NUCC-0226232]
64 | > 50 | O=C(NC1CC(=O)N(Cc2ccccc2C(F)(F)F)C1)c1ccc2cc[nH]c2c1 (stereo not shown) [NUCC-0202671]
65 | < 1 | O=C(N[C@@H]1CC(=O)N(Cc2ccccc2C(F)(F)F)C1)c1cc(C(F)(F)F)ccc1O [NUCC-0223628]
66 | 1 to 10 | COC(=O)c1ccccc1CN1CC(NC(=O)c2cc(C)ccc2O)CC1=O (stereo not shown) [NUCC-0202967]
67 | > 50 | O=C1CC(Nc2ncnc3ccc(C(F)(F)F)cc23)CN1Cc1ccccc1C(F)(F)F (stereo not shown) [NUCC-0223632]
